In the first experiment the target is T1, human type 1 glycine transporter (GlyT1) (Homo sapiens, UniProt P48067).
T1 construct: T98G cells (glioma cells) expressing human type 1 glycine transporter (GlyT1) were used; endogenous in cells; host or cells: T98G cells (human glioma cells)
T1 sequence (P48067 1-706): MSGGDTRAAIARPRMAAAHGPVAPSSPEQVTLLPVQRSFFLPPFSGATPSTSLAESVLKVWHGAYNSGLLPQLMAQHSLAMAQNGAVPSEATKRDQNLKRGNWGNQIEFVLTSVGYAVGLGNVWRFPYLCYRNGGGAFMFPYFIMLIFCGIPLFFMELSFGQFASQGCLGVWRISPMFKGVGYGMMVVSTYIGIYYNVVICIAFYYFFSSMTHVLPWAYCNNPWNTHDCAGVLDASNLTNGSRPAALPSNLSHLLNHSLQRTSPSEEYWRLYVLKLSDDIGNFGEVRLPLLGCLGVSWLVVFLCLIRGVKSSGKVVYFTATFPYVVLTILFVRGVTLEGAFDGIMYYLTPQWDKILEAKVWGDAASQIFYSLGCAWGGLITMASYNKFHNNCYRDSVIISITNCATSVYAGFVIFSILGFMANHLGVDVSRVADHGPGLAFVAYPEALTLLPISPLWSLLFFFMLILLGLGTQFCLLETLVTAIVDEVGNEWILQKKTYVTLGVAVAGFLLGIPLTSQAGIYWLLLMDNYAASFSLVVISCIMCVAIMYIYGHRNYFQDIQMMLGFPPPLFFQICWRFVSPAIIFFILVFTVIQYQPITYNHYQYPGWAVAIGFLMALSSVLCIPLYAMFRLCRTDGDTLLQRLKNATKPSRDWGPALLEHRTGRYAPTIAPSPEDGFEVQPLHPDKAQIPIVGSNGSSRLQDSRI
Kind of experiment: Glycine uptake inhibition experiment ([3H] glycine uptake in T98G cells expressing GlyT1). The experiment is classed as cell-based.
Conditions: not given
The method, then: Glycine Uptake Inhibition Experiment
A glycine uptake experiment was conducted in accordance with the method published in Neuron, 8, 927-935, 1992. In the experiment, T98G cells (glioma cells) expressing human type 1 glycine transporter (GlyT1) were used. The T98G cells were seeded in a 96-well plate at 2.0×10^4 cells/well and cultured overnight in a CO2 incubator. The test substance was dissolved in a 100% DMSO solution and then dissolved in a 10 mM HEPES buffer solution (pH 7.4) containing 150 mM sodium chloride, 1 mM calcium chloride, 5 mM potassium chloride, 1 mM magnesium chloride, 10 mM glucose and 0.2% bovine serum albumin. After removing the cell culture medium, the test substance was subjected to a 10-min pretreatment. Subsequently, the test substance and [^3H] glycine (final concentration: 250 nM) were added to the cells and reaction was performed at room temperature for 15 minutes. After the end of the reaction, the extracellular fluid was aspirated with a manifold to remove excess labeled glycine present outside the cells, and then the cells were lysed with a 0.5 M aqueous sodium hydroxide solution. The glycine content in the cells was determined by measuring the radioactivity in the cell lysate with a liquid scintillation counter. Glycine uptake in the presence of 10 μM ALX5407 was defined as non-specific uptake, and the value calculated by subtracting the amount of the non-specific uptake from the total uptake in the absence of 10 μM ALX5407 was defined as specific uptake. In addition, glycine uptake inhibitory activity (IC50 value) was calculated from an inhibition curve at the concentrations of each test substance ranging from 10^−9 to 10^−5 M. It should be noted that ALX5407 is an HCl salt of N-[(3R)-3-([1,1′-biphenyl]-4-yloxy)-3-(4-fluorophenyl)propyl]-N-methylglycine.
Molecule `COc1nc(Cl)ccc1CN1C(=O)C(F)(F)c2c([C@H](C)O)cccc21` [Compound 230, 1-[(6-chloro-2-methoxypyridin-3-yl)methyl]-3,3-difluoro-4-[(1S)-1-hydroxyethyl]-1,3-dihydro-2H-indol-2-one] yielded an IC50 of 0.063 µM. The same measure, in the same setting: then `O=C1N(Cc2cncc(Cl)c2)c2c(F)ccc(C(O)C(F)F)c2C1(F)F` (single isomer, unassigned) [Compound 253, 1-[(5-chloropyridin-3-yl)methyl]-4-(2,2-difluoro-1-hydroxyethyl)-3,3,7-trifluoro-1,3-dihydro-2H-indol-2-one], with 0.047 µM; and `C[C@H](O)c1cccc2c1C(F)(F)C(=O)N2Cc1cc(Cl)nc(C#N)c1` [Compound 187, 6-chloro-4-({3,3-difluoro-4-[(1S)-1-hydroxyethyl]-2-oxo-2,3-dihydro-1H-indol-1-yl}methyl)pyridine-2-carbonitrile], with 0.034 µM.

Molecule `C[C@H](O)c1cccc2c1C(F)(F)C(=O)N2Cc1ccc(-n2ccnn2)nc1` [Compound 197, 3,3-difluoro-4-[(1S)-1-hydroxyethyl]-1-{[6-(1H-1,2,3-triazol-1-yl)pyridin-3-yl]methyl)-1,3-dihydro-2H-indol-2-one] had a concentration for half-maximal inhibition (IC50) of 6.7 µM. This IC50 lies about 200-fold higher than the previous one. Turning to `CC(O)c1c(F)ccc2c1C(F)(F)C(=O)N2Cc1cncc(Cl)c1` (single isomer, unassigned) [Compound 183, 1-[(5-chloropyridin-3-yl)methyl]-3,3,5-trifluoro-4-(1-hydroxyethyl)-1,3-dihydro-2H-indol-2-one], the IC50 stood at 0.0067 µM. The same measure, in the same setting: then `C[C@H](O)c1cccc2c1C(F)(F)C(=O)N2Cc1ccc(OC(F)F)nc1` [Compound 215, 1-{[6 (difluoromethoxy)pyridin-3-yl]methyl}-3,3-difluoro-4-[(1S)-1-hydroxyethyl]-1,3-dihydro-2H-indol-2-one], with 0.24 µM.

The same experiment, now with this note: glycine uptake inhibition.
In the case of `C[C@H](O)c1cccc2c1C(F)(F)C(=O)N2Cc1cc(Cl)ccn1` [Compound 65, 1-[(4-chloropyridin-2-yl)methyl]-3,3-difluoro-4-[(1S)-1-hydroxyethyl]-1,3-dihydro-2H-indol-2-one], inhibition was half-maximal at 0.018 µM (IC50). Consider `Cn1c(CN2C(=O)C(F)(F)c3c([C@@H](O)C(F)(F)F)cccc32)nc2ccccc2c1=O` [Compound 37, 2-({3,3-difluoro-2-oxo-4-[(1R)-2,2,2-trifluoro-1-hydroxyethyl]-2,3-dihydro-1H-indol-1-yl}methyl)-3-methylquinazolin-4(3H)-one], for which the IC50 is 0.043 µM. For the molecule `C[C@H](O)c1cccc2c1C(F)(F)C(=O)N2Cc1ccnc(C#N)c1` [Compound 40, 4-({3,3-difluoro-4-[(1S)-1-hydroxyethyl]-2-oxo-2,3-dihydro-1H-indol-1-yl}methyl)pyridine-2-carbonitrile], the IC50 amounted to 0.038 µM. The IC50 values of the last two molecules are within 1.5-fold of each other. The same measure, in the same setting: then `CC(O)c1cccc2c1C(F)(F)C(=O)N2Cc1ccnc(Cl)c1` (single isomer, unassigned) [Compound 34, 1-[(2-chloropyridin-4-yl)methyl]-3,3-difluoro-4-(1-hydroxyethyl)-1,3-dihydro-2H-indol-2-one], with 4.6 µM; and `CC(O)c1cccc2c1C(F)(F)C(=O)N2Cc1ccnc(Cl)c1` (stereo not shown) [Compound 27, 1-[(2-chloropyridin-4-yl)methyl]-3,3-difluoro-4-(1-hydroxyethyl)-1,3-dihydro-2H-indol-2-one], with 0.023 µM. `N#Cc1cccc(CN2C(=O)C(F)(F)c3c(C(O)C(F)(F)F)cccc32)n1` (single isomer, unassigned) [Compound 18, 6-{[3,3-difluoro-2-oxo-4-(2,2,2-trifluoro-1-hydroxyethyl)-2,3-dihydro-1H-indol-1-yl]methyl}pyridine-2-carbonitrile] had a 50% inhibitory concentration (IC50) of 3.3 µM. As to `CC(O)c1cccc2c1C(F)(F)C(=O)N2Cc1cccc(Cl)n1` (single isomer, unassigned) [Compound 5, 1-[(6-chloropyridin-2-yl)methyl]-3,3-difluoro-4-(1-hydroxyethyl)-1,3-dihydro-2H-indol-2-one], it took 0.3 µM to reach half-maximal inhibition (IC50).
